The source made the active and inactive calls. The calls are words filed in the database; no cut-off is given here.

Experimental findings from ChEMBL document CHEMBL3045863, “The direct toxicity of BABA against grapevine ecosystem organisms” (2009) are described below.

Assay [1] relates to Saccharomyces cerevisiae. Description: Antifungal activity against Saccharomyces cerevisiae BW15 assessed as reduction of doubling time at 0.001 to 100 mM. It is filed as functional, organism-based.
In assay [2] the test system is Botrytis cinerea. Description: Antifungal activity against Botryotinia fuckeliana T4 assessed as inhibition of spore germination after 5 days. It is filed as functional, organism-based.
Assay [3] deals with Botrytis cinerea. Description: Antifungal activity against Botryotinia fuckeliana T4 assessed as inhibition of mycelial growth after 5 days. Type of assay: functional, organism-based.
In assay [4] the test system is Botrytis cinerea. In words: Antifungal activity against Botryotinia fuckeliana T4 assessed as inhibition of mycelial growth 2.4 mM at pH 7 after 5 days. It is filed as functional.
In assay [5] the test system is Saccharomyces cerevisiae. Description: Antifungal activity against Saccharomyces cerevisiae FL100 ATCC 28383 assessed as reduction of doubling time at > 10 mM. Type of assay: functional, organism-based.
The subject of assay [6] is Saccharomyces cerevisiae. In words: Antifungal activity against Saccharomyces cerevisiae 58W3D4 assessed as reduction of doubling time at 0.001 to 100 mM. Type of assay: functional, organism-based.
Assay [7] concerns Botrytis cinerea. In words: Antifungal activity against Botryotinia fuckeliana T4 assessed as inhibition of mycelial growth 2.4 mM at pH 4 after 5 days. It is filed as functional.

Regarding `CC(N)CC(=O)O` (racemic), the result in the assay on Saccharomyces cerevisiae [1] and with Saccharomyces cerevisiae [6] was inactive. Besides, the inhibition entry in the assay on Botrytis cinerea [2] and in the assay with Botrytis cinerea [3] was “Dose-dependent effect” each time. Also, the “inhibition (INH)” value with Botrytis cinerea [4] came out at 40%; in the assay on Botrytis cinerea [7], 100%. The result in the assay with Saccharomyces cerevisiae [5] was Active.
